Consider 8 compounds from patent US20100029654A1, “CARDIOVASCULAR COMPOSITIONS AND USE OF THE SAME FOR THE TREATMENT OF ALZHEIMER'S DISEASE” (MOUNT SINAI SCHOOL OF MEDICINE, priority 2006, published 2010).

The subject of series [1] is primary cortico-hippocampal neuron cultures. The series can be described thus: MTT in primary screening.
A further series relates to Aβ1-42. The series can be described thus: Aβ1-42 content in conditioned medium of primary cortico-hippocampal neuron cultures from Tg2576 mice (ELISA; primary and secondary dose-response screening). Format: cell-based, mouse. The note with it: for activity at 100 µM: Mus musculus, Neuron, 24 h, drug 100 μM, read-out: Ab1-42 (% of ctl). In short, it runs like this:
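This screen tested cardiovascular drugs for Aβ-lowering in Tg2576 embryonic cortico-hippocampal neuron cultures plated at 1.0×10^5 cells per well in poly-D-lysine-coated 96-well plates with Neurobasal/B27 medium. Drugs at 100 μM were added directly to the medium in duplicate, with 1% DMSO alone as the control. Conditioned medium was then collected, and its Aβ1-42 level was quantified with BioSource ELISA kits.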
(An ELISA detects its analyte on a solid surface through an enzyme-linked reagent.)

The next series has as its system Aβ1-40. The series can be described thus: Aβ1-40 content in conditioned medium of primary cortico-hippocampal neuron cultures from Tg2576 mice (ELISA; primary and secondary dose-response screening). Format: cell-based, mouse. The note with it: for activity at 100 µM: Mus musculus, Neuron, 24 h, drug 100 μM, read-out: Ab1-40 (% of ctl); for reduced Aβ1-40: <85% of ctl. In short, it runs like this: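 Primary cortico-hippocampal neurons from embryonic Tg2576 mice were plated at 1.0×10^5 cells per well on poly-D-lysine-coated 96-well plates in Neurobasal with 2% B27, 0.5 mM L-glutamine and 1% penicillin-streptomycin. Cultures received drug in 1% DMSO, and Aβ1-40 in the conditioned medium was measured by BioSource ELISA 24 hours after treatment, relative to vehicle controls.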

Series [2] deals with primary cortico-hippocampal neuron cultures. Description: lactate dehydrogenase (LDH) activity assay in parallel neuron cultures.
Description: For in vitro treatments drugs available from “The Spectrum Collection” in stocks of 10 mM in DMSO were applied directly to cultures to the desired concentrations (final 1% DMSO); control primary neuron cultures from Tg2576 embryos were treated with vehicle resulting in a final 1% DMSO.
Cell viability was assessed using a commercial available LDH assay kit according to the manufacture's instruction (Promega).
Where [3] appears, read: Primary Screening, table sorted by Aβ1-40.
Setting [4] is: primary screening, table sorted by Aβ1-42.
The mark [5] stands for this setting: primary screening, Tg2576 neuron cultures, table sorted by Aβ1-42.

Structures can show the parent of a compound that is named as a salt. Where two headings read alike, the source gives them in different places.

As to `COCCc1ccc(OCC(O)CNC(C)C)cc1` (stereo not drawn) [Metoprolol Tartrate], the “MTT (% of ctl)” value in series [1] (setting [3]) and in series [1] (setting [4]) was 94.7 % of ctl throughout. Besides, the activity at 100 µM in the series with Aβ1-42 (setting [3]) amounted to 104%; with Aβ1-42 (setting [5]), 104%; in the series with Aβ1-40 (setting [3]), 91.4%; with Aβ1-40 (setting [5]) it was 91.4%. Further, the “LDH (% of ctl)” value in series [2] (setting [3]) and in series [2] (setting [4]) was 107.5 % of ctl in each case.

Take `CC(C)(C)NCC(O)COc1cccc2c1CC(O)C(O)C2` (stereo not drawn) [Nadolol]: the “MTT (% of ctl)” value in series [1] (setting [3]) and in series [1] (setting [4]) was 102.8 % of ctl in each case. The activity at 100 µM in the series on Aβ1-42 (setting [3]) amounted to 113%; in the series with Aβ1-42 (setting [5]), 113%; with Aβ1-40 (setting [3]), 94.2%; in the series with Aβ1-40 (setting [5]), 94.2%. The “LDH (% of ctl)” value in series [2] (setting [3]) and in series [2] (setting [4]) was 106.5 % of ctl throughout.

As to `CO[C@]12C[C@@H](COC(=O)c3cncc(Br)c3)CN(C)[C@@H]1Cc1cn(C)c3cccc2c13` [Nicergoline], the “MTT (% of ctl)” value in series [1] (setting [3]) and in series [1] (setting [4]) was 99.8 % of ctl throughout. Also, the activity at 100 µM in the series with Aβ1-42 (setting [3]) amounted to 98.5%; in the series with Aβ1-42 (setting [5]), 98.5%; with Aβ1-40 (setting [3]), 76.1%; in the series with Aβ1-40 (setting [5]), 76.1%. In addition, the “reduced Aβ1-40” value with Aβ1-40 (primary screening) is recorded as “reduced Aβ1-40”. For the same compound, the “LDH (% of ctl)” value in series [2] (setting [3]) and in series [2] (setting [4]) was 106.2 % of ctl each time.

With `CCOC(=O)NNc1nncc2ccccc12` [Todralazine Hydrochloride], the “MTT (% of ctl)” value in series [1] (setting [3]) and in series [1] (setting [4]) was 99.5 % of ctl in each case. Further, the activity at 100 µM was 110% in the series with Aβ1-42 (setting [3]), 110% in the series on Aβ1-42 (setting [5]), 105% in the series with Aβ1-40 (setting [3]) and 105% in the series on Aβ1-40 (setting [5]). Moreover, the “LDH (% of ctl)” value in series [2] (setting [3]) and in series [2] (setting [4]) was 100.6 % of ctl in each case.

`CC[C@]12CCCN3CCc4c(n(c5ccccc45)[C@@](O)(C(=O)OC)C1)[C@@H]32` [Vincamine]: the “MTT (% of ctl)” value in series [1] (setting [3]) and in series [1] (setting [4]) was 98.5 % of ctl in each case. Also, the activity at 100 µM with Aβ1-42 (setting [3]) was found to be 104%; with Aβ1-42 (setting [5]) it was 104%; in the series with Aβ1-40 (setting [3]), 99.1%; in the series with Aβ1-40 (setting [5]), 99.1%. The “LDH (% of ctl)” value in series [2] (setting [3]) and in series [2] (setting [4]) was 96.4 % of ctl each time.

Take `O=[N+]([O-])O[C@H]1CO[C@H]2[C@@H]1OC[C@H]2O[N+](=O)[O-]` [Isosorbide Dinitrate]: the “MTT (% of ctl)” value in series [1] (setting [3]) and in series [1] (setting [4]) was 100.8 % of ctl in each case. Also, the “reducing Aβ1-42” value in the series on Aβ1-42 (primary screening, <85% of ctl) was “useful in reducing Aβ1-42”. Further, the “reduced Aβ1-40” value in the series with Aβ1-40 (primary screening) is given as “reduced Aβ1-40”. The “LDH (% of ctl)” value in series [2] (setting [3]) and in series [2] (setting [4]) was 124.6 % of ctl in each case.

Regarding `Cc1cccc(C)c1OCC(C)N` (stereo not drawn) [Mexiletine Hydrochloride], the “MTT (% of ctl)” value in series [1] (setting [3]) and in series [1] (setting [4]) was 95.6 % of ctl in each case. Also, the activity at 100 µM with Aβ1-42 (setting [3]) stood at 115%; in the series on Aβ1-42 (setting [5]) it was 115%; in the series with Aβ1-40 (setting [3]), 91.3%; with Aβ1-40 (setting [5]) it was 91.3%. Further, the “LDH (% of ctl)” value in series [2] (setting [3]) and in series [2] (setting [4]) was 103.4 % of ctl in each case.

For the compound `C[C@]12CCC(=O)C=C1C=C[C@@H]1[C@@H]2CC[C@@]2(C)[C@H]1CC[C@@]2(O)CCC(=O)O` [Canrenoic Acid, Potassium Salt], the “MTT (% of ctl)” value in series [1] (setting [3]) and in series [1] (setting [4]) was 102.1 % of ctl throughout. For the same compound, the activity at 100 µM is 106% in the series with Aβ1-42 (setting [3]), 106% in the series with Aβ1-42 (setting [5]), 101% in the series with Aβ1-40 (setting [3]) and 101% in the series on Aβ1-40 (setting [5]). Besides, the “LDH (% of ctl)” value in series [2] (setting [3]) and in series [2] (setting [4]) was 106.9 % of ctl in each case.
